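Grown in 96-well plates, cells were treated for 48 hours with each compound at five concentrations. Insufficient inhibition: endpoint recorded as highest concentration tested. GI50: concentration for 50% inhibition of growth. TGI: total growth inhibition.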
Columns and labels:
Test in all cases: growth of human tumour cells (NCI), 48 h
[1] = tested on: T-47D breast
[2] = tested on: HOP-92 NSCLC
[3] = tested on: RXF 393 renal
[4] = tested on: 786-0 renal
[5] = tested on: MOLT-4 leukemia
[6] = tested on: SNB-19 CNS
[7] = tested on: NCI-H522 lung
[8] = tested on: NCI-H460 lung
[9] = tested on: MALME-3M melanoma
[10] = tested on: TK-10 renal
[11] = tested on: HS 578T breast
[12] = tested on: SF-539 CNS
[13] = tested on: SNB-75 CNS
[14] = tested on: SF-268 CNS
[15] = tested on: OVCAR-8 ovarian
[16] = tested on: HT29 colon
[17] = tested on: UO-31 renal
[18] = tested on: HCC-2998 colon
[19] = tested on: MDA-MB-435
[20] = tested on: HCT-15 colon
[21] = tested on: HOP-62 NSCLC
[22] = tested on: COLO 205 colon
[23] = tested on: SK-MEL-28 melanoma
[24] = tested on: UACC-257 melanoma
[25] = tested on: ACHN renal
[26] = tested on: PC-3 prostate
[27] = tested on: SK-MEL-2 melanoma
[28] = tested on: A549 NSCLC
[29] = tested on: OVCAR-5 ovarian
[30] = tested on: LOX IMVI melanoma
[31] = tested on: EKVX NSCLC
[32] = tested on: U251 CNS
[33] = tested on: CCRF-CEM leukemia
[34] = tested on: NCI/ADR-RES ovarian
[35] = tested on: SF-295 CNS
[36] = tested on: DU-145 prostate
[37] = tested on: NCI-H23 lung
[38] = tested on: SN12C renal
[39] = tested on: OVCAR-4 ovarian
[40] = tested on: SK-OV-3 ovarian
[41] = tested on: SK-MEL-5 melanoma
[42] = tested on: NCI-H226 lung
[43] = tested on: BT-549 breast
[44] = tested on: KM12 colon
[45] = tested on: UACC-62 melanoma
[46] = tested on: A498 renal
[47] = tested on: SW-620 colon
[48] = tested on: OVCAR-3 ovarian
[49] = tested on: M14 melanoma
[50] = tested on: HL-60(TB) leukemia
[51] = tested on: MCF7 breast
[52] = tested on: K-562 leukemia
[53] = tested on: CAKI-1 renal
[54] = tested on: HCT-116 colon
[55] = tested on: SR leukemia
[56] = tested on: MDA-MB-231 breast
[57] = tested on: IGROV1 ovarian
[58] = tested on: RPMI-8226 leukemia

For `CC(C)(C)c1cc(C(C)(C)C)cc(S(=O)(=O)Nc2cc3ccccc3cc2C(=O)NCCN)c1`, the GI50 [1] was 1.7 µM, the TGI [1] was 3.6 µM and the GI50 [2] was 1.73 µM. The TGI [2] was 3.24 µM, the GI50 [3] was 1.79 µM and the TGI [3] was 3.18 µM. The GI50 [4] was 1.67 µM, the TGI [4] was 3.09 µM and the GI50 [5] was 2.32 µM. It also gave a TGI [5] of 5.77 µM, a GI50 [6] of 1.89 µM and a TGI [6] of 3.52 µM. For the same compound, the GI50 [7] was 1.8 µM, the TGI [7] was 3.72 µM and the GI50 [8] was 2.1 µM. The TGI [8] was 4.12 µM, the GI50 [9] was 1.54 µM and the TGI [9] was 3.13 µM. The GI50 [10] was 1.78 µM, the TGI [10] was 3.26 µM and the GI50 [11] was 2.17 µM. It also gave a TGI [11] of 4.89 µM, a GI50 [12] of 1.77 µM and a TGI [12] of 3.28 µM. It also gave a GI50 [13] of 1.58 µM, a TGI [13] of 4.16 µM and a GI50 [14] of 1.68 µM. It also gave a TGI [14] of 3.35 µM, a GI50 [15] of 2.2 µM and a TGI [15] of 4.87 µM. The GI50 [16] was 1.93 µM, the TGI [16] was 3.95 µM and the GI50 [17] was 1.55 µM. For the same compound, the TGI [17] was 2.98 µM, the GI50 [18] was 1.75 µM and the TGI [18] was 3.24 µM. For the same compound, the GI50 [19] was 1.68 µM, the TGI [19] was 3.18 µM and the GI50 [20] was 1.64 µM. The TGI [20] was 3.04 µM, the GI50 [21] was 1.57 µM and the TGI [21] was 3.01 µM. It also gave a GI50 [22] of 1.82 µM, a TGI [22] of 3.37 µM and a GI50 [23] of 1.87 µM. The TGI [23] was 3.64 µM, the GI50 [24] was 2.09 µM and the TGI [24] was 4.02 µM. For the same compound, the GI50 [25] was 1.7 µM, the TGI [25] was 3.18 µM and the GI50 [26] was 2.4 µM. For the same compound, the TGI [26] was 6.23 µM, the GI50 [27] was 1.92 µM and the TGI [27] was 3.87 µM. The GI50 [28] was 1.95 µM, the TGI [28] was 3.77 µM and the GI50 [29] was 1.94 µM. For the same compound, the TGI [29] was 4.49 µM, the GI50 [30] was 1.6 µM and the TGI [30] was 3.02 µM. It also gave a GI50 [31] of 1.45 µM, a TGI [31] of 2.88 µM and a GI50 [32] of 1.75 µM. For the same compound, the TGI [32] was 3.15 µM, the GI50 [33] was 2.55 µM and the TGI [33] was 6.41 µM. It also gave a GI50 [34] of 2.37 µM, a TGI [34] of 6.54 µM and a GI50 [35] of 1.72 µM. It also gave a TGI [35] of 3.17 µM, a GI50 [36] of 1.82 µM and a TGI [36] of 3.47 µM. It also gave a GI50 [37] of 1.76 µM, a TGI [37] of 3.53 µM and a GI50 [38] of 1.86 µM. The TGI [38] was 3.6 µM, the GI50 [39] was 1.86 µM and the TGI [39] was 3.94 µM. It also gave a GI50 [40] of 2.04 µM, a TGI [40] of 4.51 µM and a GI50 [41] of 1.75 µM. It also gave a TGI [41] of 3.13 µM, a GI50 [42] of 2.16 µM and a TGI [42] of 4.28 µM. For the same compound, the GI50 [43] was 1.67 µM, the TGI [43] was 3.09 µM and the GI50 [44] was 1.79 µM. For the same compound, the TGI [44] was 3.37 µM, the GI50 [45] was 1.82 µM and the TGI [45] was 3.4 µM. It also gave a GI50 [46] of 1.77 µM, a TGI [46] of 3.3 µM and a GI50 [47] of 1.93 µM. For the same compound, the TGI [47] was 3.95 µM, the GI50 [48] was 1.75 µM and the TGI [48] was 3.21 µM. For the same compound, the GI50 [49] was 1.71 µM, the TGI [49] was 3.42 µM and the GI50 [50] was 2.04 µM. It also gave a TGI [50] of 4.22 µM, a GI50 [51] of 1.53 µM and a TGI [51] of 2.95 µM. For the same compound, the GI50 [52] was 2.16 µM, the TGI [52] was 4.85 µM and the GI50 [53] was 2.75 µM. For the same compound, the TGI [53] was 9.33 µM, the GI50 [54] was 1.75 µM and the TGI [54] was 3.22 µM. For the same compound, the GI50 [55] was 1.9 µM and the TGI [55] was 4.43 µM.
With `CCCOC(C)OCCC#CCC(C)OC(=O)CC(Cl)(Cl)Cl` (stereo not given) the GI50 [11] was 56.8 µg/mL, the GI50 [31] was 98.4 µg/mL and the GI50 [33] was 22.6 µg/mL. The GI50 [50] was 46.5 µg/mL and the GI50 [54] was 50.8 µg/mL.
`Cc1cccc(N2CCN(C(=S)c3ccc4c(c3)OCO4)CC2)c1` was tested, and the GI50 [1] was 0.934 µM, the TGI [1] was over 100 µM and the GI50 [2] was 24.6 µM. The TGI [2] was over 100 µM, the GI50 [56] was 0.861 µM and the TGI [56] was over 100 µM. For the same compound, the GI50 [3] was 1.14 µM, the TGI [3] was 5.82 µM and the GI50 [4] was 7.97 µM. It also gave a TGI [4] of over 100 µM, a GI50 [5] of 15.8 µM and a TGI [5] of over 100 µM. For the same compound, the GI50 [6] was 1.64 µM, the TGI [6] was over 100 µM and the GI50 [8] was 0.472 µM. For the same compound, the TGI [8] was 37.5 µM, the GI50 [11] was 0.501 µM and the TGI [11] was 5.58 µM. It also gave a GI50 [12] of 1.5 µM, a TGI [12] of over 100 µM and a GI50 [13] of 0.8 µM. For the same compound, the TGI [13] was 6.85 µM, the GI50 [14] was 3.85 µM and the TGI [14] was over 100 µM. It also gave a GI50 [15] of 1.81 µM, a TGI [15] of over 100 µM and a GI50 [17] of 14.4 µM. It also gave a TGI [17] of over 100 µM, a GI50 [18] of 3.76 µM and a TGI [18] of over 100 µM. The GI50 [20] was 0.625 µM, the TGI [20] was over 100 µM and the GI50 [21] was 0.883 µM. For the same compound, the TGI [21] was over 100 µM, the GI50 [22] was 0.582 µM and the TGI [22] was 4.9 µM. The GI50 [23] was 2.19 µM, the TGI [23] was over 100 µM and the GI50 [24] was over 100 µM. For the same compound, the TGI [24] was over 100 µM, the GI50 [57] was 1.21 µM and the TGI [57] was over 100 µM. For the same compound, the GI50 [25] was 3.88 µM, the TGI [25] was over 100 µM and the GI50 [26] was 4.14 µM. It also gave a TGI [26] of over 100 µM, a GI50 [28] of 1.07 µM and a TGI [28] of over 100 µM. It also gave a GI50 [29] of 5.41 µM, a TGI [29] of over 100 µM and a GI50 [30] of 1.88 µM. For the same compound, the TGI [30] was over 100 µM, the GI50 [31] was 7.12 µM and the TGI [31] was over 100 µM. The GI50 [32] was 1.89 µM, the TGI [32] was over 100 µM and the GI50 [33] was 6.91 µM. The TGI [33] was over 100 µM, the GI50 [34] was 0.338 µM and the TGI [34] was over 100 µM. It also gave a GI50 [35] of 0.409 µM, a TGI [35] of over 100 µM and a GI50 [36] of 2.34 µM. For the same compound, the TGI [36] was over 100 µM, the GI50 [37] was 7.07 µM and the TGI [37] was over 100 µM. It also gave a GI50 [39] of 67.7 µM, a TGI [39] of over 100 µM and a GI50 [40] of 2.19 µM. For the same compound, the TGI [40] was 83.3 µM, the GI50 [41] was 0.437 µM and the TGI [41] was 35.1 µM. The GI50 [42] was 41 µM, the TGI [42] was over 100 µM and the GI50 [44] was 0.514 µM. The TGI [44] was over 100 µM, the GI50 [45] was 0.64 µM and the TGI [45] was over 100 µM. It also gave a GI50 [46] of 0.799 µM, a TGI [46] of 67.9 µM and a GI50 [47] of 0.467 µM. It also gave a TGI [47] of over 100 µM, a GI50 [58] of 8.01 µM and a TGI [58] of over 100 µM. For the same compound, the GI50 [48] was 0.359 µM, the TGI [48] was 2.87 µM and the GI50 [49] was 0.463 µM. The TGI [49] was over 100 µM, the GI50 [50] was 0.659 µM and the TGI [50] was 19 µM. For the same compound, the GI50 [51] was 0.571 µM, the TGI [51] was over 100 µM and the GI50 [52] was 0.521 µM. The TGI [52] was over 100 µM, the GI50 [53] was 0.485 µM and the TGI [53] was over 100 µM. The GI50 [54] was 0.513 µM, the TGI [54] was over 100 µM and the GI50 [55] was 0.557 µM. It also gave a TGI [55] of over 100 µM.

Reference: PubChem BioAssay (NCI)
